Reference: PubChem BioAssay AID1963871 (Molecular Pharmacology Branch, DTP, NCI, 2024)

Test system: KRAS-mutant PDC multicell tumor spheroid viability
Test: Anticancer human tumor 521955-158-R2-J5-PDC patient-derived pancreatic carcinoma cell line growth inhibition [KRAS2]
Conditions: for IC50: curve of first compound; for viability, T/C: stronger effect = lower value
Excerpt: Multicellular complex tumor spheroid response to RAS pathway inhibitors in combination with a targeted agents in patient-derived cell lines with oncogenic KRAS variants from multiple cancer types
A high-throughput screen of multi-cell type tumor spheroids was designed to identify active combinations of targeted small molecules and KRAS pathway inhibitors. Complex spheroids include a stromal component modeled by human endothelial cells (HUVEC) and fibroblasts modeled by human mesenchymal stem cells (MSCs). The concentration ranges selected for each drug and investigational agent were based upon clinically achievable concentrations if the clinical Cmax of the agent was known.
Compounds. The drugs and investigational agents: BI-3406 (NSC825286), BAY-293 (NSC824723), batoprotafib (TNO155; NSC825523), sotorasib (AMG 510; NSC818433), MRTX1257 (NSC819558), elimusertib (BAY 1895344; NSC800525), molibresib (GSK525762; NSC774829), temuterkib (LY3214996; NSC803410), venetoclax (NSC766270), alisertib (NSC759677), olaparib (NSC753686), talazoparib (NSC767125), erdafitinib (NSC781556), ipatasertib (NSC767898), cabozantinib (NSC761068), nintedanib (NSC756659), abemaciclib (NSC768073), docetaxel (NSC628503), trametinib (NSC758246), and sapanisertib (NSC764658) were obtained from the National Cancer Institute (NCI) Developmental Therapeutics Program Chemical Repository. The FDA-approved anticancer drug set is available from the Developmental Therapeutics Program. […] The stock solutions were prepared in dimethyl sulfoxide (DMSO, Sigma-Aldrich, St. Louis, MO, cat. D2650) at 800-fold the tested concentration and stored at -70 degrees C prior to their use. All drugs and investigational agents were tested over a range starting from a high concentration at or near the clinical Cmax and decreasing in half-log increments. If the clinical Cmax for an agent had not been determined, the highest concentration tested was 10 microM.
Cell Culture. All cells were maintained in an incubator at 37 degrees C and 5% CO2 with 95% humidity. The PDC lines were cultured according to standard operating procedures established by the NCI PDMR (https://pdmr.cancer.gov/sops/default.htm). Briefly, all PDCs were thawed and cultured in Matrigel-coated flasks prepared with a working solution of 1X Ham's F-12 nutrient mix, without supplementation (Invitrogen, Waltham, MA, cat. 11765054), 100 U/mL penicillin-streptomycin (Invitrogen, cat. 15140122), and 2.5% Matrigel (Corning Inc., Corning, NY, cat. 354248) for the first three passages. All PDCs were cultured in complete DMEM/F-12 media containing advanced DMEM/F-12 (Invitrogen, cat. 12634028), 4.9% defined fetal bovine serum, heat inactivated (HyClone Laboratories Inc., Logan, UT, cat. SH30070.03HI), 389 ng/mL hydrocortisone (Sigma-Aldrich, cat. H4001), 9.7 ng/mL human EGF recombinant protein (Invitrogen, cat. PHG0313), 23.4 microg/mL adenine (Sigma-Aldrich, cat. A2786), 97.3 U/mL penicillin-streptomycin (Invitrogen, cat. 15140122), 1.9 mM L-glutamine (Invitrogen, cat. 25030081), and 9.7 microM Y-27632 dihydrochloride (Tocris Bioscience, Bristol, United Kingdom, cat. 1254). The PDCs were cultured in complete DMEM/F12 media without 9.7 microM Y-27632 dihydrochloride for at least two passages prior to the screen. The established cell line HOP-62 was cultured in RPMI 1640 medium, HEPES (Invitrogen, cat. 22400105) with 10% defined fetal bovine serum (HyClone Laboratories Inc., cat. SH30070.03) and 2 mM L-glutamine (Invitrogen, cat. 25030081). The pooled donor HUVEC were cultured in endothelial cell growth medium 2 (PromoCell, Heidelberg, Germany, cat. C-22011) and the hMSC were cultured in mesenchymal stem cell growth medium 2 (PromoCell, cat. C-28009). For all experiments, HUVEC and hMSC were used at passages </=5, while the malignant cell lines were used at passages </=15. […]

[1] = second compound 0.0316 µM, first compound 0.0316 µM
[2] = second compound 0.0316 µM, first compound 0.1 µM
[3] = second compound 0.1 µM, first compound 0.0316 µM
[4] = second compound 0.1 µM, first compound 0.1 µM
[5] = second compound 0.316 µM, first compound 0.0316 µM
[6] = second compound 0.316 µM, first compound 0.1 µM
[7] = second compound 1 µM, first compound 0.0316 µM
[8] = second compound 1 µM, first compound 0.1 µM
[9] = second compound 3.16 µM, first compound 0.0316 µM
[10] = second compound 3.16 µM, first compound 0.1 µM
[11] = second compound 0.1 µM, first compound 0.316 µM
[12] = second compound 0.1 µM, first compound 1 µM
[13] = second compound 0.1 µM, first compound 3.16 µM
[14] = second compound 0.1 µM, first compound 10 µM
[15] = second compound 0.316 µM, first compound 0.316 µM
[16] = second compound 0.316 µM, first compound 1 µM
[17] = second compound 0.316 µM, first compound 3.16 µM
[18] = second compound 0.316 µM, first compound 10 µM
[19] = second compound 1 µM, first compound 0.316 µM
[20] = second compound 1 µM, first compound 1 µM
[21] = second compound 1 µM, first compound 3.16 µM
[22] = second compound 1 µM, first compound 10 µM
[23] = second compound 3.16 µM, first compound 0.316 µM
[24] = second compound 3.16 µM, first compound 1 µM
[25] = second compound 3.16 µM, first compound 3.16 µM
[26] = second compound 3.16 µM, first compound 10 µM
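Also: viability read after seven days of drug exposure.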

Cn1ncnc1[C@H]1c2n[nH]c(=O)c3cc(F)cc(c23)N[C@@H]1c1ccc(F)cc1 + C=CC(=O)N1CCN(c2nc(OCC3CCCN3C)nc3c2CCN(c2cccc4cccc(C)c24)C3)CC1CC#N
IC50 (second compound 0.0316 µM): > 100 nM
IC50 (second compound 0.1 µM): > 100 nM
IC50 (second compound 0.316 µM): > 100 nM
IC50 (second compound 1 µM): > 100 nM
IC50 (second compound 3.16 µM): < 0.316 nM
viability, T/C (second compound 0.0316 µM, first compound 0.000316 µM): 111%
viability, T/C (second compound 0.0316 µM, first compound 0.001 µM): 114%
viability, T/C (second compound 0.0316 µM, first compound 0.00316 µM): 103%
viability, T/C (second compound 0.0316 µM, first compound 0.01 µM): 81.4%
viability, T/C [1]: 91.6%
viability, T/C [2]: 82.5%
viability, T/C (second compound 0.1 µM, first compound 0.000316 µM): 104%
viability, T/C (second compound 0.1 µM, first compound 0.001 µM): 96.9%
viability, T/C (second compound 0.1 µM, first compound 0.00316 µM): 86.9%
viability, T/C (second compound 0.1 µM, first compound 0.01 µM): 85.5%
viability, T/C [3]: 81.3%
viability, T/C [4]: 77.6%
viability, T/C (second compound 0.316 µM, first compound 0.000316 µM): 99.6%
viability, T/C (second compound 0.316 µM, first compound 0.001 µM): 94.4%
viability, T/C (second compound 0.316 µM, first compound 0.00316 µM): 93.9%
viability, T/C (second compound 0.316 µM, first compound 0.01 µM): 72.3%
viability, T/C [5]: 75%
viability, T/C [6]: 66.5%
viability, T/C (second compound 1 µM, first compound 0.000316 µM): 78.3%
viability, T/C (second compound 1 µM, first compound 0.001 µM): 82.7%
viability, T/C (second compound 1 µM, first compound 0.00316 µM): 78.5%
viability, T/C (second compound 1 µM, first compound 0.01 µM): 69.2%
viability, T/C [7]: 67.4%
viability, T/C [8]: 62.7%
viability, T/C (second compound 3.16 µM, first compound 0.000316 µM): 15.8%
viability, T/C (second compound 3.16 µM, first compound 0.001 µM): 10.9%
viability, T/C (second compound 3.16 µM, first compound 0.00316 µM): 10.7%
viability, T/C (second compound 3.16 µM, first compound 0.01 µM): 8.52%
viability, T/C [9]: 9.22%
viability, T/C [10]: 8.81%

CCNC(=O)CC1N=C(c2ccc(Cl)cc2)c2cc(OC)ccc2-n2c(C)nnc21 (stereo not given) + COc1cc2nc(C)nc(NC(C)c3cc(N)cc(C(F)(F)F)c3)c2cc1OC1CCOC1
IC50 (second compound 0.1 µM): 405 nM
IC50 (second compound 0.316 µM): 293 nM
IC50 (second compound 1 µM): 333 nM
IC50 (second compound 3.16 µM): 320 nM
IC50 (second compound 10 µM): 418 nM
viability, T/C [3]: 90%
viability, T/C [4]: 79.5%
viability, T/C [11]: 52.6%
viability, T/C [12]: 36.7%
viability, T/C [13]: 32.4%
viability, T/C [14]: 26.9%
viability, T/C [5]: 104%
viability, T/C [6]: 89.9%
viability, T/C [15]: 47%
viability, T/C [16]: 30.8%
viability, T/C [17]: 30%
viability, T/C [18]: 26.6%
viability, T/C [7]: 89.2%
viability, T/C [8]: 85.2%
viability, T/C [19]: 50.1%
viability, T/C [20]: 34.2%
viability, T/C [21]: 28.2%
viability, T/C [22]: 28%
viability, T/C [9]: 98.5%
viability, T/C [10]: 87.7%
viability, T/C [23]: 48.4%
viability, T/C [24]: 39.6%
viability, T/C [25]: 28%
viability, T/C [26]: 30.8%
viability, T/C (second compound 10 µM, first compound 0.0316 µM): 105%
viability, T/C (second compound 10 µM, first compound 0.1 µM): 96.5%
viability, T/C (second compound 10 µM, first compound 0.316 µM): 49.9%
viability, T/C (second compound 10 µM, first compound 1 µM): 33.4%
viability, T/C (second compound 10 µM, first compound 3.16 µM): 18.6%
viability, T/C (second compound 10 µM, first compound 10 µM): 8.29%

COc1cc(Nc2ncc3c(n2)-c2ccc(Cl)cc2C(c2c(F)cccc2OC)=NC3)ccc1C(=O)O + C=CC(=O)N1CCN(c2nc(OCC3CCCN3C)nc3c2CCN(c2cccc4cccc(C)c24)C3)CC1CC#N
IC50 (second compound 0.0316 µM): < 31.6 nM
IC50 (second compound 0.1 µM): < 31.6 nM
IC50 (second compound 0.316 µM): < 31.6 nM
IC50 (second compound 1 µM): < 31.6 nM
IC50 (second compound 3.16 µM): < 31.6 nM
viability, T/C [1]: 41.5%
viability, T/C [2]: 33.7%
viability, T/C (second compound 0.0316 µM, first compound 0.316 µM): 50.5%
viability, T/C (second compound 0.0316 µM, first compound 1 µM): 46.2%
viability, T/C (second compound 0.0316 µM, first compound 3.16 µM): 38.5%
viability, T/C (second compound 0.0316 µM, first compound 10 µM): 40.5%
viability, T/C [3]: 51.1%
viability, T/C [4]: 28.1%
viability, T/C [11]: 38.4%
viability, T/C [12]: 36.3%
viability, T/C [13]: 38.9%
viability, T/C [14]: 38.2%
viability, T/C [5]: 48.5%
viability, T/C [6]: 27.2%
viability, T/C [15]: 31.6%
viability, T/C [16]: 38.8%
viability, T/C [17]: 33.8%
viability, T/C [18]: 42.2%
viability, T/C [7]: 28.8%
viability, T/C [8]: 28.7%
viability, T/C [19]: 29.1%
viability, T/C [20]: 27.7%
viability, T/C [21]: 26.9%
viability, T/C [22]: 32%
viability, T/C [9]: 1.52%
viability, T/C [10]: 1.29%
viability, T/C [23]: 0.17%
viability, T/C [24]: 6.1%
viability, T/C [25]: 1.44%
viability, T/C [26]: 0.25%
